Measurements: PubChem BioAssay (NCI)
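Protocol summary: plate cells (96-well), add compound at 5 concentrations, incubate 48 h, interpolate endpoints linearly. GI50 = concentration required for 50% inhibition of growth. TGI denotes the concentration required for complete inhibition of growth.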

Assays:
Assay in all cases: DTP human tumour cell line panel, 48 h
[1] = system: CAKI-1 renal
[2] = system: UACC-257 melanoma
[3] = system: KM12 colon
[4] = system: HCT-116 colon
[5] = system: SK-MEL-2 melanoma
[6] = system: MDA-MB-231 breast
[7] = system: HT29 colon
[8] = system: SF-295 CNS
[9] = system: SN12C renal
[10] = system: U251 CNS
[11] = system: NCI-H460 lung
[12] = system: SK-MEL-5 melanoma
[13] = system: OVCAR-5 ovarian
[14] = system: A549 NSCLC
[15] = system: SNB-75 CNS
[16] = system: HL-60(TB) leukemia
[17] = system: OVCAR-4 ovarian
[18] = system: SF-268 CNS
[19] = system: SW-620 colon
[20] = system: PC-3 prostate
[21] = system: RXF 393 renal
[22] = system: NCI/ADR-RES ovarian
[23] = system: COLO 205 colon
[24] = system: DU-145 prostate
[25] = system: T-47D breast
[26] = system: NCI-H522 lung
[27] = system: OVCAR-8 ovarian
[28] = system: MDA-MB-435
[29] = system: SR leukemia
[30] = system: K-562 leukemia
[31] = system: IGROV1 ovarian
[32] = system: SNB-19 CNS
[33] = system: UO-31 renal
[34] = system: SK-OV-3 ovarian
[35] = system: NCI-H23 lung
[36] = system: M14 melanoma
[37] = system: HS 578T breast
[38] = system: LOX IMVI melanoma
[39] = system: BT-549 breast
[40] = system: OVCAR-3 ovarian
[41] = system: UACC-62 melanoma
[42] = system: NCI-H226 lung
[43] = system: ACHN renal
[44] = system: 786-0 renal
[45] = system: SK-MEL-28 melanoma
[46] = system: HOP-62 NSCLC
[47] = system: TK-10 renal
[48] = system: MCF7 breast
[49] = system: MOLT-4 leukemia
[50] = system: EKVX NSCLC
[51] = system: SF-539 CNS
[52] = system: HOP-92 NSCLC
[53] = system: HCT-15 colon
[54] = system: RPMI-8226 leukemia
[55] = system: CCRF-CEM leukemia
[56] = system: A498 renal
[57] = system: HCC-2998 colon
[58] = system: MALME-3M melanoma

O=C(CSCC(=O)N/N=C\c1cccc(Br)c1)N/N=C\c1cccc(Br)c1
TGI [1]: 37.1 µM
TGI [2]: 33.2 µM
TGI [3]: 32.8 µM
TGI [4]: 27.9 µM
TGI [5]: 91.3 µM
TGI [6]: 26.2 µM
TGI [7]: 66.7 µM
TGI [8]: 29.9 µM
TGI [9]: 35.2 µM
TGI [10]: 28.8 µM
TGI [11]: 84.3 µM
TGI [12]: 42.3 µM
TGI [13]: 33.6 µM
TGI [14]: 31.5 µM
TGI [15]: 39.4 µM
TGI [16]: > 100 µM
TGI [17]: 69.9 µM
TGI [18]: 37.9 µM
TGI [19]: 77.4 µM
TGI [20]: 38.1 µM
TGI [21]: 67.9 µM
TGI [22]: 34.1 µM
TGI [23]: > 100 µM
TGI [24]: 48.3 µM
TGI [25]: 54.6 µM
TGI [26]: 51.9 µM
TGI [27]: 35.4 µM
TGI [28]: 44.7 µM
TGI [29]: 66.1 µM
TGI [30]: 68.4 µM
TGI [31]: 47 µM
TGI [32]: > 100 µM
TGI [33]: 33.1 µM
TGI [34]: 40.6 µM
TGI [35]: 30.1 µM
TGI [36]: 49.9 µM
TGI [37]: 35.7 µM
TGI [38]: 23.5 µM
TGI [39]: 48.2 µM
TGI [40]: 26.6 µM
TGI [41]: 29.4 µM
TGI [42]: 36.5 µM
TGI [43]: 26.4 µM
TGI [44]: 35.5 µM
TGI [45]: 41.7 µM
TGI [46]: 31.7 µM
TGI [47]: 24.8 µM
TGI [48]: > 100 µM
TGI [49]: 73 µM
TGI [50]: 63.7 µM
TGI [51]: 50.8 µM
TGI [52]: 47 µM
TGI [53]: 86.5 µM

O=C(Nc1ccc(Oc2cccc(Cl)c2)c(Cl)c1)c1cccnc1
GI50 [1]: 2.63 µM
TGI [1]: 36.6 µM
GI50 [2]: 5.1 µM
TGI [2]: 27 µM
GI50 [3]: 0.782 µM
TGI [3]: 12 µM
GI50 [4]: 2.11 µM
TGI [4]: > 50 µM
GI50 [5]: 2.11 µM
TGI [5]: 20 µM
GI50 [6]: 6.25 µM
TGI [6]: 46 µM
GI50 [7]: 0.823 µM
TGI [7]: 6.42 µM
GI50 [8]: 1.33 µM
TGI [8]: 16 µM
GI50 [9]: 3.74 µM
TGI [9]: > 50 µM
GI50 [54]: 2 µM
TGI [54]: > 50 µM
GI50 [10]: 2.23 µM
TGI [10]: 18 µM
GI50 [11]: 1.88 µM
TGI [11]: 19.1 µM
GI50 [55]: 1.89 µM
TGI [55]: > 50 µM
GI50 [12]: 1.78 µM
TGI [12]: 6.92 µM
GI50 [13]: 5.5 µM
TGI [13]: > 50 µM
GI50 [14]: 2.08 µM
TGI [14]: > 50 µM
GI50 [15]: 1.21 µM
TGI [15]: 4.81 µM
GI50 [16]: 1.51 µM
TGI [16]: 6.16 µM
GI50 [17]: 14.5 µM
TGI [17]: > 50 µM
GI50 [18]: 3.71 µM
TGI [18]: 46.6 µM
GI50 [19]: 1.21 µM
TGI [19]: > 50 µM
GI50 [21]: 0.927 µM
TGI [21]: 4.65 µM
GI50 [22]: 1.28 µM
TGI [22]: 11.3 µM
GI50 [23]: 1.39 µM
TGI [23]: 8.1 µM
GI50 [24]: 2.15 µM
TGI [24]: 36 µM
GI50 [25]: 1.91 µM
TGI [25]: > 50 µM
GI50 [26]: 0.968 µM
TGI [26]: 5.89 µM
GI50 [27]: 2.85 µM
TGI [27]: 33.9 µM
GI50 [28]: 0.155 µM
TGI [28]: 0.723 µM
GI50 [29]: 0.395 µM
TGI [29]: > 50 µM
GI50 [30]: 0.255 µM
TGI [30]: > 50 µM
GI50 [31]: 2.76 µM
TGI [31]: > 50 µM
GI50 [56]: 1.52 µM
TGI [56]: 4.68 µM
GI50 [32]: 3.15 µM
TGI [32]: > 50 µM
GI50 [33]: 3.63 µM
TGI [33]: 30 µM
GI50 [57]: 5.62 µM
TGI [57]: 15.7 µM
GI50 [34]: 2.12 µM
TGI [34]: > 50 µM
GI50 [35]: 3.3 µM
TGI [35]: > 50 µM
GI50 [36]: 1.38 µM
TGI [36]: 29 µM
GI50 [37]: 1.83 µM
TGI [37]: 35.5 µM
GI50 [38]: 2.9 µM
TGI [38]: 13 µM
GI50 [39]: 5.42 µM
TGI [39]: 44.3 µM
GI50 [58]: 3.16 µM
TGI [58]: 32.8 µM
GI50 [40]: 1.22 µM
TGI [40]: 4.28 µM
GI50 [41]: 3.89 µM
TGI [41]: > 50 µM
GI50 [42]: 2.16 µM
TGI [42]: 32 µM
GI50 [43]: 4.06 µM
TGI [43]: > 50 µM
GI50 [44]: 2.69 µM
TGI [44]: 11.6 µM
GI50 [45]: 7.2 µM
TGI [45]: > 50 µM
GI50 [46]: 1.8 µM
TGI [46]: 25.1 µM
GI50 [47]: 3.16 µM
TGI [47]: 40.1 µM
GI50 [48]: 0.597 µM
TGI [48]: > 50 µM
GI50 [49]: 2.86 µM
TGI [49]: > 50 µM
GI50 [50]: 3.62 µM
TGI [50]: > 50 µM
GI50 [51]: 1.49 µM
TGI [51]: 7.54 µM
GI50 [52]: 2.73 µM
TGI [52]: 22.1 µM
GI50 [53]: 0.343 µM
TGI [53]: > 50 µM
